Data on 5 compounds can be found in the NIST ThermoML archive (doi:10.1016/j.fluid.2006.01.026).

± gives the expanded uncertainty stated by the source.

For this series the following is noted: 101.33 kPa, Liquid; for viscosity: Capillary tube (Ostwald / Ubbelohde) method; for mass density: Vibrating tube method.

As for `CCCCCCCCCCCCCC[P+](CCCCCC)(CCCCCC)CCCCCC.O=S(=O)([O-])C(F)(F)C(F)OC(F)(F)C(F)(F)F`, the viscosity (in general, the internal friction of a fluid under shear) is, setting by setting: (283.15 K) 1319 ± 150 mPa·s; (293.15 K) 625 ± 68 mPa·s; (303.15 K) 330 ± 35 mPa·s; (313.15 K) 191 ± 20 mPa·s; (323.15 K) 118 ± 12 mPa·s; (333.15 K) 77.4 ± 7.8 mPa·s. For the same compound, the viscosity (343.15 K) is reported as 52.9 ± 5.3 mPa·s, the viscosity (353.15 K) is on record as 37.2 ± 3.8 mPa·s, the viscosity (363.15 K) came out at 26.7 ± 2.7 mPa·s and the viscosity (373.15 K) amounted to 19.3 ± 1.9 mPa·s. Also, the mass density (commonly mass per unit of volume) worked out at 1075 ± 2 kg/m3 (283.15 K), 1063 ± 2 kg/m3 (298.15 K), 1044 ± 2 kg/m3 (323.15 K) and 1025 ± 2 kg/m3 (348.15 K).

Take `CCCCCCCCCCCCCC[P+](CCCC)(CCCC)CCCC.O=S(=O)([O-])C(F)(F)C(F)C(F)(F)F`: the viscosity is, setting by setting: (283.15 K) 2512 ± 300 mPa·s; (293.15 K) 1103 ± 120 mPa·s; (303.15 K) 539 ± 58 mPa·s; (313.15 K) 289 ± 30 mPa·s; (323.15 K) 167 ± 17 mPa·s; (333.15 K) 103 ± 10 mPa·s. The viscosity is, setting by setting: (343.15 K) 66.6 ± 6.7 mPa·s; (353.15 K) 45 ± 4.5 mPa·s; (363.15 K) 31.5 ± 3.2 mPa·s; (373.15 K) 22.6 ± 2.3 mPa·s. In addition, the mass density came out at 1082 ± 2 kg/m3 (283.15 K), 1070 ± 2 kg/m3 (298.15 K), 1052 ± 2 kg/m3 (323.15 K) and 1034 ± 2 kg/m3 (348.15 K).

On to `CCCCn1cc[n+](C)c1.O=S(=O)([O-])C(F)(F)C(F)OC(F)(F)C(F)(F)F` (stereo not drawn), for which the viscosity by setting is: (283.15 K) 1021 ± 110 mPa·s; (293.15 K) 444 ± 48 mPa·s; (303.15 K) 218 ± 23 mPa·s; (313.15 K) 119 ± 12 mPa·s; (323.15 K) 71.2 ± 7.2 mPa·s; (333.15 K) 45.9 ± 4.6 mPa·s. The viscosity runs as follows: (343.15 K) 31.6 ± 3.2 mPa·s; (353.15 K) 22.9 ± 2.3 mPa·s; (363.15 K) 17.3 ± 1.7 mPa·s; (373.15 K) 13.5 ± 1.4 mPa·s.

Regarding `CCCC[n+]1ccn(C)c1.O=S(=O)([O-])C(F)(F)C(F)C(F)(F)F` (stereo not drawn), the viscosity runs as follows: (283.15 K) 853 ± 94 mPa·s; (293.15 K) 378 ± 40 mPa·s; (303.15 K) 192 ± 20 mPa·s; (313.15 K) 108 ± 11 mPa·s; (323.15 K) 66.8 ± 6.8 mPa·s; (333.15 K) 44.2 ± 4.5 mPa·s. In addition, the viscosity reads like this: (343.15 K) 30.8 ± 3.1 mPa·s; (353.15 K) 22.3 ± 2.2 mPa·s; (363.15 K) 16.6 ± 1.7 mPa·s; (373.15 K) 12.5 ± 1.3 mPa·s.

`CCCCn1cc[n+](C)c1.O=S(=O)([O-])C(F)(F)C(F)OC(F)(F)F` (stereo not drawn): the viscosity (283.15 K) is 626 ± 68 mPa·s; the viscosity (293.15 K) was 298 ± 31 mPa·s; the viscosity (303.15 K) is on record as 159 ± 16 mPa·s; the viscosity (313.15 K) is 93 ± 9 mPa·s; the viscosity (323.15 K) stood at 59 ± 6 mPa·s; the viscosity (333.15 K) came to 39.8 ± 4 mPa·s. Besides, the viscosity by setting is: (343.15 K) 28.2 ± 2.8 mPa·s; (353.15 K) 20.7 ± 2.1 mPa·s; (363.15 K) 15.6 ± 1.6 mPa·s; (373.15 K) 11.9 ± 1.2 mPa·s.
